In article PMC8620494, “Synthesis of Purine-Based Ionic Liquids and Their Applications” (Molecules, 2021):
Read-outs that look alike come from different tables or passages of the source.

Columns and labels:
[1] = for Aqueous solubility enhancement (S/S0) of the salt relative to its free purine: S molar water-solubility of salt at 298 K, S0 of free purine from PubChem; for Molar water-solubility (S): pure water, 72 h, shake-flask; for Molar water-solubility (S) / pH saturated (pH of the saturated IL solution): (298 ± 1) K; for pH saturated (pH of the saturated IL solution): saturated aqueous solution
Method: IL solubility studies were performed using the isothermal shake-flask method, as reported in the literature. […] If needed, samples were centrifuged for 2 min at 12,000 rpm. Samples of the liquid phase were collected and diluted in distilled water, followed by the preparation of a calibration curve for each compound of interest. The amount of compound in the liquid phase was quantified using a UV–Vis Synergy HT microplate reader from BioTek (Winooski, VT, USA). […] All assays were performed in triplicate. The pH (±0.02) of the samples was determined by using a Mettler Toledo SevenMultiTMdual pH meter.

[2] = TGA, nitrogen, 2 K·min^−1, peak of the derivative
Method: The melting temperatures (Tm) were measured in a differential scanning calorimetry (DSC), using a Hitachi DSC7000X equipment at atmospheric pressure, with hermetically sealed aluminum crucibles and a constant flow of nitrogen. […] Each sample underwent three cycles of cooling and heating, at 5 K∙min^−1 and 2 K∙min^−1, respectively. The melting point of each compound was taken as the peak temperature. The determined melting points are estimated to have a 1 K uncertainty. […] Each sample was heated in an aluminia pan, under a nitrogen atmosphere, with a heating rate of 2 K·min^−1. The degradation temperature-associated uncertainty is estimated to be 0.01 K. Degradation temperature was taken as the peak temperature of the derivative.

[3] = Method: Samples were quantified, as previously described, at 316 nm (see Figure S1). All assays were performed in triplicates. To verify the integrity of the IL, the liquid phase was analyzed by ^1H and ^13C NMR.
[4] = remark: listed apart in the source
From the text: Theobromine has relatively strong intermolecular hydrogen bonding between its carbonyl groups and strong π–π stacking interactions. In theophylline, the hydrogen between the two carbonyl groups is replaced by a methyl group, causing the previously mentioned interactions to be weaker. […] Adding alkyl groups to ILs usually lowers their solubility. […] The overall poor solubility of purines is connected to their inter-base hydrogen bonding. The insertion of the methyl groups replaces protons that would otherwise be available to form inter-base hydrogen bonds.

[5] = cited from earlier work
Raphidocelis subcapitata = details: for EC50: 96 h incubation, microalgae yield, 95% confidence limits in parenthesis; for Acute hazard category according to European legislation: based on 96 h EC50 in mg∙L^−1
Method: The microalgae ecotoxicity assays were conducted, as previously described in detail, using the microalgae Raphidocelis subcapitata, i.e., following the guidelines of OECD [38], and adapted to the use of 24-well microplates. […] The microalgae were exposed to a range of concentrations of each salt, and all the assays, including the MBL blank control, were conducted in triplicate. The microplates were incubated for 96 h, under controlled incubation conditions, as used for the inoculum. After that time, the microalgae yield in each treatment was calculated as the difference between the cell densities at the end and beginning of the test.

[6] = IL solution 0.05 mol∙L-1 before addition of ferulic acid
[7] = IL solution 0.05 mol∙L-1 saturated with ferulic acid
[8] = IL solution 0.1 mol∙L-1 before addition of ferulic acid
[9] = IL solution 0.1 mol∙L-1 saturated with ferulic acid
[10] = IL solution 0.25 mol∙L-1 before addition of ferulic acid
[11] = IL solution 0.25 mol∙L-1 saturated with ferulic acid
[12] = IL solution 0.5 mol∙L-1 before addition of ferulic acid
[13] = IL solution 0.5 mol∙L-1 saturated with ferulic acid
[14] = IL solution 1.0 mol∙L-1 before addition of ferulic acid
[15] = IL solution 1.0 mol∙L-1 saturated with ferulic acid
[16] = IL solution 1.5 mol∙L-1 before addition of ferulic acid
[17] = IL solution 1.5 mol∙L-1 saturated with ferulic acid

| SMILES | Molar water-solubility (S) [1] | pH saturated (pH of the saturated IL solution) [1] | Decomposition temperature (Td) [2] | Initial solution pH [3, 6] | Saturated solution pH [3, 7] | Initial solution pH [3, 8] | Saturated solution pH [3, 9] | Initial solution pH [3, 10] | Saturated solution pH [3, 11] | Initial solution pH [3, 12] | Saturated solution pH [3, 13] | other results |
| --- | --- | --- | --- | --- | --- | --- | --- | --- | --- | --- | --- | --- |
| CCCC[N+](CCCC)(CCCC)CCCC.Cn1c(=O)c2[n-]cnc2n(C)c1=O [[N4444][Theop], Tetrabutylammonium theophyllinate] | 2200 ± 100 mM | 10.89 | 486 ± 1 K | 8.91 | 5.30 | 10.52 | 6.44 | 10.81 | 6.56 | 10.78 | 7.65 | Aqueous solubility enhancement (S/S0) of the salt relative to its free purine [1]: 53 fold; Initial solution pH [3, 14]: 11.06; Saturated solution pH [3, 15]: 8.63; Initial solution pH [3, 16]: 10.68; Saturated solution pH [3, 17]: 9.95 |
| Cn1c(=O)c2[n-]cnc2n(C)c1=O.[Na+] [sodium theophyllinate] | – | – | – | – | – | – | – | – | – | – | – | Molar solubility of sodium theophyllinate in pure water (S0) [4]: 260 ± 10 mM; pH saturated ([4]; [N4444]Cl 1.0 mol∙L-1 solution saturated with sodium theophyllinate): 10.55 |
| O=c1[nH]c(=O)c2[nH]c(=O)[nH]c2[nH]1 [uric acid] | – | – | – | – | – | – | – | – | – | – | – | Molar water-solubility of the free purine (S0) ([5]; (293 ± 1) K, ref PubChem [53]): 0.357 mM |
| CCCC[N+](CCCC)(CCCC)CCCC.O=c1[n-]c2[nH]c(=O)[nH]c2c(=O)[nH]1 [[N4444][Ur], Tetrabutylammonium urate] | 96 ± 7 mM | 8.31 | 505 ± 1 K | – | – | – | – | – | – | – | – | EC50 (Raphidocelis subcapitata): 2.7 µg/mL |
| CCCC[N+](CCCC)(CCCC)CCCC.[Cl-] [[N4444]Cl, tetrabutylammonium chloride, reference compound] | – | – | – | 5.71 | 3.29 | 6.31 | 2.89 | 5.62 | 2.63 | 4.26 | 2.36 | pH initial ([4]; initial aqueous solution of [N4444]Cl 1.0 mol∙L-1): 4.23; Acute hazard category according to European legislation (Raphidocelis subcapitata): acute 2 (acute 2 category (1 < EC50 < 10 mg∙L^−1)); Initial solution pH [3, 14]: 4.04; Saturated solution pH [3, 15]: 2.10; Initial solution pH [3, 16]: 4.20; Saturated solution pH [3, 17]: 2.26 |
| O.O=c1[nH]c2nc([O-])nc([O-])c2[nH]1.[K+].[K+] [potassium urate] | – | – | – | – | – | – | – | – | – | – | – | Water-solubility of other urate salts [5]: 12.06 mM |
| O=c1[nH]c(=O)c2[nH]c([O-])nc2[nH]1.[Na+] [sodium urate] | – | – | – | – | – | – | – | – | – | – | – | Water-solubility of other urate salts [5]: 6.76 mM |
| CCCC[N+](CCCC)(CCCC)CCCC.Cn1cnc2c1c(=O)[n-]c(=O)n2C [[N4444][Theob], Tetrabutylammonium theobrominate] | 1590 ± 70 mM | 12.76 | 457 ± 1 K | 10.85 | 5.36 | 11.56 | 5.54 | 11.80 | 8.51 | 11.98 | 9.62 | Aqueous solubility enhancement (S/S0) of the salt relative to its free purine [1]: 870 fold; S/S0 of ferulic acid recalculated with S0 at a similar pH to that of the sample ([3]; all tested IL concentrations, 303 K): < 1 |
| CCCC[N+](CCCC)(CCCC)CCCC.O=c1[nH]c(=O)c2[n-]cnc2[nH]1 [[N4444][Xan], Tetrabutylammonium xanthinate] | 170 ± 10 mM | 10.14 | 495 ± 1 K | – | – | – | – | – | – | – | – | EC50 (Raphidocelis subcapitata): 0.8 µg/mL; Acute hazard category according to European legislation (Raphidocelis subcapitata): acute 1 (acute 1 category (EC50 < 1 mg∙L^−1)) |
